{
  "source": "PubChem BioAssay AID1645865",
  "about": "(Buhrlage Lab, Dana-Farber Cancer Institute and Novartis …, 2021)",
  "note": "Activity calls are given as the source filed them.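 Rule for the calls: active = maximal inhibition of the USP30 enzyme reaching 30% or more across the dose series; inactive = the rest.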",
  "data": [
    {"target": "Ubiquitin carboxyl-terminal hydrolase 30 (Homo sapiens) (UniProt Q70CQ3)", "sequence (Q70CQ3 whole entry, looked up)": "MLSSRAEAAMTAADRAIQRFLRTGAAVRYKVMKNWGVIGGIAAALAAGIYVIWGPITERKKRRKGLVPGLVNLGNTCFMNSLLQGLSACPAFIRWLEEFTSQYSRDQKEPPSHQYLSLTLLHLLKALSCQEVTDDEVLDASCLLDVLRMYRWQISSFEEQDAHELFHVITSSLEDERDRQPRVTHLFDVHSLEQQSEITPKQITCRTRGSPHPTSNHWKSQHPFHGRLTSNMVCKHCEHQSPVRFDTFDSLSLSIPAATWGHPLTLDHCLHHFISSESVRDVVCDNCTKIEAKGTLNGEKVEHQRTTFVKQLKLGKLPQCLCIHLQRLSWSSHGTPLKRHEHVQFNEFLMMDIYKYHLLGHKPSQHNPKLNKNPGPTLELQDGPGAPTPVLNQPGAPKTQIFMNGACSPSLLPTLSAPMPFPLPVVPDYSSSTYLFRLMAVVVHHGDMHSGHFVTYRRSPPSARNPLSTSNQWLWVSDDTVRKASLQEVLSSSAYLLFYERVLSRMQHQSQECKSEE", "assay": "ubiquitin-specific protease 30 DUB inhibitors, concentration-effect, biochemical, validation of primary actives (AID 1645865)", "conditions": "purified USP30, Ub-rhodamine cleavage, fluorescence, 2 h", "values": [
      {"smiles": "CCCC(=O)c1c[nH]c(C(=O)NCc2ccc(F)cc2)c1", "IC50": "17.4 µM"},
      {"smiles": "COc1cc(O)c2c(O)c3c(cc2c1)CC(C)OC3=O", "note": "(stereo not given)", "IC50": "> 50 µM (inactive)"},
      {"smiles": "COc1cccc(NC(=O)c2nnn(-c3ccccc3)n2)c1", "IC50": "> 50 µM (inactive)"},
      {"smiles": "CSc1ncc(C(=O)NC(C)c2ccccc2)c(-c2ccccc2)n1", "note": "(stereo not given)", "IC50": "21.9 µM"},
      {"smiles": "CCOc1ccc(-c2ccc3nnc(SCC(=O)Nc4cccc(C(C)=O)c4)n3n2)cc1", "IC50": "3.81 µM"},
      {"smiles": "Cc1ccc(Cc2nc(-c3ccc(=O)[nH]c3)no2)cc1", "IC50": "> 50 µM (inactive)"},
      {"smiles": "CCN(c1ccc(NC(=O)CSc2nnc(-c3ccccc3)n2-c2ccc(OC)c(OC)c2)cc1)C(C)C", "IC50": "2.07 µM"},
      {"smiles": "Cc1ccc(-c2nc(NC(=O)COc3ccc(Cl)cc3)no2)cc1", "IC50": "1.35 µM"},
      {"smiles": "Cc1nnc(Sc2cc(C(=O)NCCN3CCCC3)c3ccccc3n2)s1", "IC50": "> 50 µM (inactive)"},
      {"smiles": "Cn1nc(-c2nc(-c3ccccc3)no2)c2c1CCN(C(=O)C1CC1)C2", "IC50": "> 50 µM (inactive)"},
      {"smiles": "O=C(CCCCn1c(=O)[nH]c2ccccc2c1=O)Nc1cccc(Cl)c1", "IC50": "21.6 µM"},
      {"smiles": "COc1ccc(CNC(=O)CN2C(=O)C(C)=C(c3ccc(C)cc3)S2(=O)=O)cc1", "IC50": "> 50 µM (inactive)"},
      {"smiles": "Cc1ccc(-c2c(C(=O)Nc3ccc(S(N)(=O)=O)cc3)oc(=O)c3ccccc23)cc1", "IC50": "29.2 µM"},
      {"smiles": "Cc1ccc(NC(=O)Cc2nnc3c(-c4nc(C5CC5)no4)cccn23)cc1", "IC50": "3.15 µM"},
      {"smiles": "O=C1Oc2nc3ccccc3cc2CN1Cc1ccco1", "IC50": "17.2 µM"},
      {"smiles": "O=C(COC(=O)c1n[nH]c2ccccc12)Nc1ccc(N2CCCCC2)cc1", "IC50": "34.9 µM"},
      {"smiles": "COc1ccc(C(=O)CCN2CCOCC2)cc1[N+](=O)[O-]", "IC50": "> 50 µM (inactive)"},
      {"smiles": "CCC1OC(O)(C(C)C(O)C(C)C2OC(=O)/C(C)=C/C(C)=CC(C)C(O)C(C)C/C(C)=C/C=C/C2OC)CC(OC(=O)/C=C/C(=O)NC2=C(O)CCC2=O)C1C", "note": "(stereo not given)", "IC50": "> 50 µM (inactive)"},
      {"smiles": "CSc1nc(Cc2ccc(Cl)cc2)nc2ccccc12", "IC50": "> 50 µM (inactive)"},
      {"smiles": "CCOC(=O)c1sc2nc(CC(=O)OC)nc(NCc3ccco3)c2c1C", "IC50": "> 50 µM (inactive)"},
      {"smiles": "COc1cccc(N2CCN(C(=O)Nc3ccc4c(c3)NC(=O)CO4)CC2)c1", "IC50": "21.8 µM"},
      {"smiles": "Cc1c(-c2nsc(NC(=O)c3ccc(Cl)cc3)n2)nnn1-c1ccccc1F", "IC50": "0.488 µM"},
      {"smiles": "COc1cc(Cl)ccc1Oc1ncnc2sc(C)c(C)c12", "IC50": "> 50 µM (inactive)"},
      {"smiles": "CCCCN1CC(C(=O)Nc2ccc(C(=O)Nc3ccc(Cl)cc3)cc2)CC1=O", "note": "(stereo not given)", "IC50": "2.21 µM"},
      {"smiles": "COc1ccc(-c2nc3n(n2)C(CC(=O)Nc2cccc4ccccc24)C(=O)N3)cc1", "note": "(stereo not given)", "IC50": "2.87 µM"},
      {"smiles": "O=C(Nc1ccc2c(c1)OCCO2)c1cccc2nc3ccccc3nc12", "IC50": "1.56 µM"},
      {"smiles": "Cc1cccc(NC(=O)CN2C(=O)CC(c3ccccc3)S(=O)(=O)c3ccccc32)c1C", "note": "(stereo not given)", "IC50": "22.1 µM"},
      {"smiles": "O=C(NCc1ccco1)c1ccc2c(c1)N(Cc1cccc(F)c1)C(=O)c1ccccc1S2", "IC50": "> 50 µM (inactive)"},
      {"smiles": "Cc1ccc(C(=O)Nc2ccc3nccnc3c2)cc1", "IC50": "34.3 µM"},
      {"smiles": "O=C(Nc1nc2ccccc2s1)c1ccc2c(c1)C(=O)N(Cc1cccnc1)C2=O", "IC50": "2.19 µM"},
      {"smiles": "O=C(NCc1ccc2c(c1)OCO2)c1[nH]nc2c1COc1ccccc1-2", "IC50": "1.97 µM"},
      {"smiles": "Cc1ccc(NC2=NC(c3ccco3)n3c(nc(C)cc3=O)N2)c(C)c1", "note": "(stereo not given)", "IC50": "2.87 µM"},
      {"smiles": "COc1cccc(CC(=O)Nc2cc(F)c3nc(N4CCOCC4)ccc3c2)c1", "IC50": "> 50 µM (inactive)"},
      {"smiles": "COc1ccc(Cl)cc1NC(=O)c1cc(-c2ccccn2)n[nH]1", "IC50": "0.164 µM"},
      {"smiles": "CCOC(=O)c1nc(Nc2ccc(OC)c(Cl)c2)c2ccccc2n1", "IC50": "26.6 µM"},
      {"smiles": "Cc1ccc2nc(CNc3ccc(F)cc3C)cc(=O)n2c1", "IC50": "> 50 µM (inactive)"},
      {"smiles": "Cc1c(-c2nn3c(-c4ccco4)nnc3s2)cccc1[N+](=O)[O-]", "IC50": "2.6 µM"},
      {"smiles": "CCCc1nc2sc3c(NCCc4ccc(OC)c(OC)c4)ncnc3c2c2c1CCC2", "IC50": "> 50 µM (inactive)"},
      {"smiles": "COc1ccc(-c2cc(-c3ccc(F)cc3)[nH]c(=O)c2C#N)cc1", "IC50": "22.1 µM"},
      {"smiles": "COc1cccc(CCNC(=O)CCn2c(=O)c(C)nc3cc(C)c(C)cc32)c1", "IC50": "> 50 µM (inactive)"}
    ]}
  ]
}
